≈ marks a conversion by molar mass, not a printed value.
Legend:
[1] = system: Staphylococcus aureus cultures; experiment: Broth dilution MIC in trypticase soy broth, low and high NaCl (Example 10); assay type: cell-based; details: for MIC: Staphylococcus aureus, TSB, read-out: MIC
Procedure: This example compares the antibiotic activities of methicillin, cephalothin and cephaloridine with the compounds of Examples 1, 2 and 3, in broth dilution tests. The MIC values, in μg/ml., are against the same Staphylococcus aureus cultures described in Example 9, except that in this example the cultures were grown in trypticase soy broth (TSB). Growing the cultures in two broth cultures, one having a low (0.5 percent) sodium chloride content and one having a high (5.0 percent) sodium chloride content is said to assist in identifying the methicillin-resistant cultures from those which are not methicillin-resistant. […] See Chabbert, Y. A., 1967 Postgrad. Med. J., 43 (suppl); 40-46. One expects that similar changes in MIC values for this type of culture to other β-lactam antibiotics, e.g., various penicillins and cephalosporins, to have similar implications. […] That is, methicillin-resistant S.aureus cultures are susceptible to the cephalosporin antibiotics used in this invention.

[2] = system: Staphylococcus aureus cultures; experiment: Agar dilution susceptibility test, phenylthioacetyl cephalosporins vs methicillin resistant S. aureus (Example 9); assay type: cell-based; details: for MIC: Staphylococcus aureus, read-out: MIC
From the text: This example compares the antibiotic activities of three known compounds, methicillin, cephalothin, and cephaloridine, with three compounds from the above examples, in terms of minimum inhibitory concentration (MIC) values in microgram/milliliter units against various isolates of Staphylococcus aureus cultures. The culture numbers and the procedures used to obtain the reported data are disclosed by W. E. Wick and D. A. Preston in their article "Heterogeneous Methicillin-Resistant Staphylococcus Aureus" which appeared in Progress in Antimicrobial And Anticancer Chemotherapy, Proceedings of the 6th International Congress of Chemotherapy, Volume, 1, U. of Tokyo Press, Tokyo, (1970). In these agardilution susceptibility tests, the inocula were diluted to 10^3 bacteria per spot. Cultures 3055 (benzylpenicillin sensitive) and H232 (benzylpenicillin-resistant) are controls. The remaining cultures are methicillin-resistant, and, except for 3136, are clinical isolates. Culture 3136 is a 4th transfer laboratory selected mutant.

[3] = culture 3055 (control), table part marked b
[4] = culture 3055 (control), table part marked c
[5] = culture 3130, table part marked b
[6] = culture 3130, table part marked c
[7] = culture 3131, table part marked b
[8] = culture 3131, table part marked c
[9] = culture 3132 (first column so headed), table part marked b
[10] = culture 3132 (first column so headed), table part marked c
[11] = culture 3132 (second column so headed), table part marked b
[12] = culture 3132 (second column so headed), table part marked c
[13] = culture 3134, table part marked b
[14] = culture 3134, table part marked c
[15] = culture 3135, table part marked b
[16] = culture 3135, table part marked c
[17] = culture 3136, table part marked b
[18] = culture 3136, table part marked c
[19] = culture 3137, table part marked b
[20] = culture 3137, table part marked c
[21] = culture 3138, table part marked b
[22] = culture 3138, table part marked c
[23] = culture 3139, table part marked b
[24] = culture 3139, table part marked c
[25] = culture (Seattle) 966, table part marked b
[26] = culture (Seattle) 966, table part marked c
[27] = culture H232 (control), table part marked b
[28] = culture H232 (control), table part marked c
[29] = culture Kavarnick 1138501, table part marked b
[30] = culture Kavarnick 1138501, table part marked c
[31] = culture S61, table part marked b
[32] = culture S61, table part marked c
[33] = culture 3055 (control, benzylpenicillin sensitive), table part marked b
[34] = culture 3055 (control, benzylpenicillin sensitive), table part marked c
[35] = culture 3132, table part marked b
[36] = culture 3132, table part marked c
[37] = culture 3133, table part marked b
[38] = culture 3133, table part marked c
[39] = culture H232 (control, benzylpenicillin-resistant), table part marked b
[40] = culture H232 (control, benzylpenicillin-resistant), table part marked c
[41] = culture Kavarmark 1138501, table part marked b
[42] = culture Kavarmark 1138501, table part marked c

COc1cccc(OC)c1C(=O)N[C@@H]1C(=O)N2[C@@H]1SC(C)(C)[C@@H]2C(=O)O [Methicillin, methicillin]
difference in MIC values in low versus high salt TSB cultures ([1]; 0.5 percent vs 5.0 percent NaCl, methicillin-resistant S. aureus): wide disparity in MIC values | MIC [1, 3]: 2 µg/mL (≈ 5.26 µM) | MIC [1, 4]: 2 µg/mL (≈ 5.26 µM) | MIC [1, 5]: 16 µg/mL (≈ 42.1 µM) | MIC [1, 6]: 64 µg/mL (≈ 168 µM) | MIC [1, 7]: 16 µg/mL (≈ 42.1 µM) | MIC [1, 8]: 128 µg/mL (≈ 336 µM) | MIC [1, 9]: 32 µg/mL (≈ 84.1 µM) | MIC [1, 10]: 64 µg/mL (≈ 168 µM) | MIC [1, 11]: 8 µg/mL (≈ 21 µM) | MIC [1, 12]: 128 µg/mL (≈ 336 µM) | MIC [1, 13]: 32 µg/mL (≈ 84.1 µM) | MIC [1, 14]: 64 µg/mL (≈ 168 µM) | MIC [1, 15]: 32 µg/mL (≈ 84.1 µM) | MIC [1, 16]: 64 µg/mL (≈ 168 µM) | MIC [1, 17]: 32 µg/mL (≈ 84.1 µM) | MIC [1, 18]: 128 µg/mL (≈ 336 µM) | MIC [1, 19]: > 128 µg/mL | MIC [1, 20]: > 128 µg/mL | MIC [1, 21]: 128 µg/mL (≈ 336 µM) | MIC [1, 22]: 128 µg/mL (≈ 336 µM) | MIC [1, 23]: 16 µg/mL (≈ 42.1 µM) | MIC [1, 24]: > 128 µg/mL | MIC [1, 25]: 8 µg/mL (≈ 21 µM) | MIC [1, 26]: 64 µg/mL (≈ 168 µM) | MIC [1, 27]: 4 µg/mL (≈ 10.5 µM) | MIC [1, 28]: 4 µg/mL (≈ 10.5 µM) | MIC [1, 29]: 32 µg/mL (≈ 84.1 µM) | MIC [1, 30]: 128 µg/mL (≈ 336 µM) | MIC [1, 31]: 16 µg/mL (≈ 42.1 µM) | MIC [1, 32]: 64 µg/mL (≈ 168 µM) | MIC ([1]; culture S, table part marked b): 16 µg/mL (≈ 42.1 µM) | MIC ([1]; culture S, table part marked c): 16 µg/mL (≈ 42.1 µM) | MIC [2, 33]: 1 µg/mL (≈ 2.63 µM) | MIC [2, 34]: 2 µg/mL (≈ 5.26 µM) | MIC [2, 5]: 8 µg/mL (≈ 21 µM) | MIC [2, 6]: 128 µg/mL (≈ 336 µM) | MIC [2, 7]: 8 µg/mL (≈ 21 µM) | MIC [2, 8]: 128 µg/mL (≈ 336 µM) | MIC [2, 35]: 8 µg/mL (≈ 21 µM) | MIC [2, 36]: 32 µg/mL (≈ 84.1 µM) | MIC [2, 37]: 8 µg/mL (≈ 21 µM) | MIC [2, 38]: 128 µg/mL (≈ 336 µM) | MIC [2, 13]: 16 µg/mL (≈ 42.1 µM) | MIC [2, 14]: 64 µg/mL (≈ 168 µM) | MIC [2, 15]: 8 µg/mL (≈ 21 µM) | MIC [2, 16]: 64 µg/mL (≈ 168 µM) | MIC [2, 17]: 8 µg/mL (≈ 21 µM) | MIC [2, 18]: 64 µg/mL (≈ 168 µM) | MIC [2, 19]: > 128 µg/mL | MIC [2, 20]: > 128 µg/mL | MIC [2, 21]: 16 µg/mL (≈ 42.1 µM) | MIC [2, 22]: > 128 µg/mL | MIC [2, 23]: 8 µg/mL (≈ 21 µM) | MIC [2, 24]: > 128 µg/mL | MIC [2, 25]: 8 µg/mL (≈ 21 µM) | MIC [2, 26]: 64 µg/mL (≈ 168 µM) | MIC [2, 39]: 2 µg/mL (≈ 5.26 µM) | MIC [2, 40]: 2 µg/mL (≈ 5.26 µM) | MIC [2, 41]: 8 µg/mL (≈ 21 µM) | MIC [2, 42]: 128 µg/mL (≈ 336 µM) | MIC [2, 31]: 8 µg/mL (≈ 21 µM) | MIC [2, 32]: 128 µg/mL (≈ 336 µM)

CC(=O)OCC1=C(C(=O)O)N2C(=O)C(NC(=O)CSc3ccc(Cl)c(Cl)c3)C2SC1 (stereo not drawn) [Example 1, 7-(3,4-dichlorophenylthioacetamido)cephalosporanic acid]
MIC [1, 3]: 0.06 µg/mL (≈ 0.122 µM) | MIC [1, 4]: 0.06 µg/mL (≈ 0.122 µM) | MIC [1, 5]: 0.5 µg/mL (≈ 1.02 µM) | MIC [1, 6]: 4 µg/mL (≈ 8.14 µM) | MIC [1, 7]: 1 µg/mL (≈ 2.04 µM) | MIC [1, 8]: 2 µg/mL (≈ 4.07 µM) | MIC [1, 9]: < 0.5 µg/mL | MIC [1, 10]: 2 µg/mL (≈ 4.07 µM) | MIC [1, 11]: < 0.5 µg/mL | MIC [1, 12]: 2 µg/mL (≈ 4.07 µM) | MIC [1, 13]: 1 µg/mL (≈ 2.04 µM) | MIC [1, 14]: 4 µg/mL (≈ 8.14 µM) | MIC [1, 15]: < 0.5 µg/mL | MIC [1, 16]: 2 µg/mL (≈ 4.07 µM) | MIC [1, 17]: 0.5 µg/mL (≈ 1.02 µM) | MIC [1, 18]: 2 µg/mL (≈ 4.07 µM) | MIC [1, 19]: 2 µg/mL (≈ 4.07 µM) | MIC [1, 20]: 4 µg/mL (≈ 8.14 µM) | MIC [1, 21]: 1 µg/mL (≈ 2.04 µM) | MIC [1, 22]: 1 µg/mL (≈ 2.04 µM) | MIC [1, 23]: 1 µg/mL (≈ 2.04 µM) | MIC [1, 24]: 1 µg/mL (≈ 2.04 µM) | MIC [1, 25]: 0.5 µg/mL (≈ 1.02 µM) | MIC [1, 26]: 2 µg/mL (≈ 4.07 µM) | MIC [1, 27]: 0.12 µg/mL (≈ 0.244 µM) | MIC [1, 28]: 0.25 µg/mL (≈ 0.509 µM) | MIC [1, 29]: 0.5 µg/mL (≈ 1.02 µM) | MIC [1, 30]: 2 µg/mL (≈ 4.07 µM) | MIC [1, 31]: 2 µg/mL (≈ 4.07 µM) | MIC [1, 32]: 2 µg/mL (≈ 4.07 µM) | MIC ([1]; culture S, table part marked b): 2 µg/mL (≈ 4.07 µM) | MIC ([1]; culture S, table part marked c): 2 µg/mL (≈ 4.07 µM) | MIC [2, 33]: < 0.06 µg/mL | MIC [2, 34]: < 0.06 µg/mL | MIC [2, 5]: 0.5 µg/mL (≈ 1.02 µM) | MIC [2, 6]: 1 µg/mL (≈ 2.04 µM) | MIC [2, 7]: 1 µg/mL (≈ 2.04 µM) | MIC [2, 8]: 1 µg/mL (≈ 2.04 µM) | MIC [2, 35]: 0.5 µg/mL (≈ 1.02 µM) | MIC [2, 36]: 0.25 µg/mL (≈ 0.509 µM) | MIC [2, 37]: 0.5 µg/mL (≈ 1.02 µM) | MIC [2, 38]: 1 µg/mL (≈ 2.04 µM) | MIC [2, 13]: 1 µg/mL (≈ 2.04 µM) | MIC [2, 14]: 0.5 µg/mL (≈ 1.02 µM) | MIC [2, 15]: 0.5 µg/mL (≈ 1.02 µM) | MIC [2, 16]: 0.25 µg/mL (≈ 0.509 µM) | MIC [2, 17]: 0.5 µg/mL (≈ 1.02 µM) | MIC [2, 18]: 0.5 µg/mL (≈ 1.02 µM) | MIC [2, 19]: 2 µg/mL (≈ 4.07 µM) | MIC [2, 20]: 2 µg/mL (≈ 4.07 µM) | MIC [2, 21]: 1 µg/mL (≈ 2.04 µM) | MIC [2, 22]: 0.5 µg/mL (≈ 1.02 µM) | MIC [2, 23]: 1 µg/mL (≈ 2.04 µM) | MIC [2, 24]: 0.25 µg/mL (≈ 0.509 µM) | MIC [2, 25]: 0.5 µg/mL (≈ 1.02 µM) | MIC [2, 26]: 0.25 µg/mL (≈ 0.509 µM) | MIC [2, 39]: < 0.06 µg/mL | MIC [2, 40]: < 0.06 µg/mL | MIC [2, 41]: 0.5 µg/mL (≈ 1.02 µM) | MIC [2, 42]: 0.5 µg/mL (≈ 1.02 µM) | MIC [2, 31]: 0.5 µg/mL (≈ 1.02 µM) | MIC [2, 32]: 1 µg/mL (≈ 2.04 µM) | effectiveness in in vitro tests vs methicillin, cephalothin and cephaloridine ([2]; various cultures of methicillin-resistant Staphylococcus aureus): substantially more effective than methicillin, cephalothin, and cephaloridine

Reference: patent publication US4175125A, “Method for treating methicillin resistant staphylococcus aureus” (Eli Lilly and Company, priority 1978, dated 1979)
